Tests used:
HUV-EC-C cells (aFGF) = test: HUV-EC-C assay, aFGF (ECGF)-stimulated 3H-thymidine incorporation (HUVEC-aFGF); type: cell-based; conditions: Homo sapiens; Table 1
Procedure: (§1) The following protocol may also be used to measure a compound's activity against PDGF-R, FGF-R, VEGF, aFGF or Flk-1/KDR, all of which are naturally expressed by HUV-EC cells.
(§2) 1. […] After cells have detached from the flask, add an equal volume of assay medium and transfer to a 50 ml sterile centrifuge tube (Fisher Scientific, catalogue no. 05-539-6).
(§3) 2. Wash the cells with about 35 ml assay medium in the 50 ml sterile centrifuge tube by adding the assay medium, centrifuge for 10 minutes at approximately 200x g, aspirate the supernatant, and resuspend with 35 ml D-PBS. Repeat the wash two more times with D-PBS, resuspend the cells in about 1 ml assay medium/is cm^2 of tissue culture flask. Assay medium consists of F12K medium (Gibco BRL, catalogue no. 21127-014) and 0.5% heat-inactivated fetal bovine serum. Count the cells with a Coulter Counter® (Coulter Electronics, Inc.) and add assay medium to the cells to obtain a concentration of 0.8-1.0×10^5 cells/ml.
(§4) 3. Add cells to 96-well flat-bottom plates at 100 μl/well or 0.8-1.0×10^4 cells/well, incubate −24h at 37° C., 5% CO2.
(§5) 1. Make up two-fold test compound titrations in separate 96-well plates, generally 50 μM on down to 0 μM. Use the same assay medium as mentioned in day 0, step 2 above. Titrations are made by adding […] of test compound at 200 μM (4X the final well concentration) to the top well of a particular plate column. Since the stock test compound is usually 20 mM in DMSO, the 200 μM drug concentration contains 2% DMSO.
(§6) A diluent made up to 2% DMSO in assay medium (F12K+0.5% fetal bovine serum) is used as diluent for the test compound titrations in order to dilute the test compound but keep the DMSO concentration constant. Add this diluent to the remaining wells in the column at 60 μl/well. Take 60 μl from the 120 μl of 200 μM test compound dilution in the top well of the column and mix with the 60 μl in the second well of the column. Take 60 μl from this well and mix with the 60 μl in the third well of the column, and so on until two-fold titrations are completed. When the next-to-the-last well is mixed, take 60 μl of the 120 μl in this well and discard it. Leave the last well with 60 μl of DMSO/media diluent as a non-test compound-containing control. Make 9 columns of titrated test compound, enough for triplicate wells each for: (1) VEGF (obtained from Pepro Tech Inc., catalogue no. 100-200, (2) endothelial cell growth factor (ECGF) (also known as acidic fibroblast growth factor, or aFGF) (obtained from Boehringer Mannheim Biochemica, catalogue no. 1439 600), or, (3) human PDGF B/B (1276-956, Boehringer Mannheim, Germany) and assay media control. ECGF comes as a preparation with sodium heparin.
(§7) 2. Transfer 50 μl/well of the test compound dilutions to the 96-well assay plates containing the 0.8-1.0×10^4 cells/100 μl/well of the HUV-EC-C cells from day 0 and incubate […] at 37° C., 5% CO2.
(§8) 3. In triplicate, add 50 μl well of […] VEGF, 20 ng/ml ECGF, or media control to each test compound condition. As with the test compounds, the growth factor concentrations are 4X the desired final concentration. Use the assay media from day 0 step 2 to make the concentrations of growth factors. Incubate approximately 24 hours at 37° C., 5% CO2. Each well will have 50 μl test compound dilution, 50 μl growth factor or media, and 100 μl cells, which calculates to 200 μl/well total. Thus the 4X concentrations of test compound and growth factors become 1X once everything has been added to the wells.
(§9) 1. Add ^3H-thymidine (Amersham, catalogue no. TRK-686) at 1 μCi/well (10 μl/well of 100 μCi/ml solution made up in RPMI media +10% heat-inactivated fetal bovine serum) and incubate ˜24 h at 37° C., 5% CO2. RPMI is obtained from Gibco BRL, catalogue no. 11875-051.
(§10) 1. Freeze plates overnight at −20° C. […]

HUV-EC-C cells (VEGF) = test: HUV-EC-C assay, VEGF-stimulated 3H-thymidine incorporation (HUVEC-VEGF); type: cell-based; conditions: Homo sapiens; Table 1
Procedure: as §1, §2, §3, §4, §5, §6, §7, §8, §9, §10

| IC50 (HUV-EC-C cells (VEGF)) [nM] | SMILES | IC50 (HUV-EC-C cells (aFGF)) [nM] |
| --- | --- | --- |
| 110 | Cc1c(CCC(=O)O)c[nH]c1/C=C1\C(=O)Nc2ccccc21 [Example 4, 3-[4-Methyl-5-(2-oxo-l,2-dihydroindol-3-ylidenemethyl)-1H-pyrrol-3-yl]-propionic acid] | 7100 |
| 90 | CCOc1cccc(-c2ccc3c(c2)NC(=O)/C3=C\c2[nH]cc(CCC(=O)O)c2C)c1 [Example 31, 3-{5-[6-(3-Ethoxy-phenyl)-2-oxo-1,2-dihydroindol-3-ylidenemethyl]-4-methyl-1H-pyrrol-3-yl}-propionic acid] | 180 |
| 740 | Cc1cccc2c1/C(=C/c1[nH]cc(CCC(=O)O)c1C)C(=O)N2 [Example 8, 3-[4-Methyl-5-(4-methyl-2-oxo-1,2-dihydroindol-3-ylidenemethyl)-1H-pyrrol-3-yl]-propionic acid] | 4520 |
| 1200 | CCc1ccc2c(c1)/C(=C/c1[nH]cc(CCC(=O)O)c1C)C(=O)N2 [Example 17, 3-[5-(5-Ethyl-2-oxo-1,2-dihydro-indol-3-ylidenemethyl)-4-methyl-1H-pyrrol-3-yl]-propionic acid] | 20000 |
| 50 | Cc1[nH]c(/C=C2\C(=O)Nc3ccc(Cl)cc32)c(C)c1CCC(=O)O [Example 3, 3-[5-(5-Chloro-2-oxo-1,2-dihydroindol-3-ylidenemethyl)-2,4-dimethyl-1H-pyrrol-3-yl]-propionic acid] | 2800 |
| 10000 | Cc1[nH]c(/C=C2\C(=O)Nc3cc(-c4ccccc4)ccc32)c(C)c1CCC(=O)O [Example 32, 3-[2,4-Dimethyl-5-(2-oxo-6-phenyl-1,2-dihydroindol-3-ylidenemethyl)-1H-pyrrol-3-yl]-propionic acid] | 10000 |
| 670 | COc1ccc2c(c1)NC(=O)/C2=C\c1[nH]c(C)c(CCC(=O)O)c1C [Example 24, 3-[5-(6-Methoxy-2-oxo-1,2-dihydroindol-3-ylidenemethyl)-2,4-dimethyl-1H-pyrrol-3-yl]-propionic acid] | 25100 |
| 250 | CCOc1cccc(-c2ccc3c(c2)NC(=O)/C3=C\c2[nH]c(C)c(CCC(=O)O)c2C)c1 [Example 30, 3-(5-[6-(3-Ethoxy-phenyl)-2-oxo-1,2-dihydroindol-3-ylidenemethyl]-2,4-dimethyl-1H-pyrrol-3-yl)-propionic acid] | 640 |
| 180 | COc1cccc(-c2ccc3c(c2)NC(=O)/C3=C\c2[nH]cc(CCC(=O)O)c2C)c1 [Example 29, 3-{5-[6-(3-Methoxy-phenyl)-2-oxo-1,2-dihydroindol-3-ylidenemethyl]-4-methyl-1N-pyrrol-3-yl}-propionic acid] | 130 |
| 10600 | COc1cc2c(cc1OC)/C(=C/c1[nH]cc(CCC(=O)O)c1C)C(=O)N2 [Example 10, 3-[5-(5,6-Dimethoxy-2-oxo-1,2-dihydroindol-3-ylidenemethyl)-4-methyl-1H-pyrrol-3-yl]-propionic acid] | > 50000 |
| 1600 | COc1ccc2c(c1)NC(=O)/C2=C\c1[nH]cc(CCC(=O)O)c1C [Example 2, 3-[5-(6-Methoxy-2-oxo-1,2-dihydroindol-3-ylidenemethyl)-4-methyl-1H-pyrrol-3-yl]-propionic acid] | 31600 |
| 1400 | Cc1c(CCC(=O)O)c[nH]c1/C=C1\C(=O)Nc2cc(Cl)ccc21 [Example 11, 3-[5-(6-Chloro-2-oxo-1,2-dihydroindol-3-ylidenemethyl)-4-methyl-1H-pyrrol-3-yl]-propionic acid] | 9600 |
| 630 | Cc1c(CCC(=O)O)c[nH]c1/C=C1\C(=O)Nc2ccc(Br)cc21 [Example 6, 3-[5-(5-Bromo-2-oxo-1,2-dihydroindol-3-ylidenemethyl)-4-methyl-1H-pyrrol-3-yl]-propionic acid] | 18400 |
| 70 | Cc1[nH]c(/C=C2\C(=O)Nc3ccc(Br)cc32)c(C)c1CCC(=O)O [Example 19, 3-[5-(5-Bromo-2-oxo-1,2-dihydroindol-3-ylidenemethyl)-2,4-dimethyl-1H-pyrrol-3-yl]-propionic acid] | 3600 |
| 290 | Cc1[nH]c(/C=C2\C(=O)Nc3ccc(I)cc32)c(C)c1CCC(=O)O [Example 20, 3-[5-(5-Iodo-2-oxo-1,2-dihydroindol-3-ylidenemethyl)-2,4-dimethyl-1H-pyrrol-3-yl]-propionic acid] | 5000 |
| 990 | COc1cccc(-c2ccc3c(c2)NC(=O)/C3=C\c2[nH]c(C)c(CCC(=O)O)c2C)c1 [Example 27, 3-{5-[6-(3-Methoxy-phenyl)-2-oxo-1,2-dihydroindol-3-ylidenemethyl]-2,4-dimethyl-1H-pyrrol-3-yl}-propionic acid] | 1500 |
| 130 | Cc1ccc2c(c1)/C(=C/c1[nH]c(C)c(CCC(=O)O)c1C)C(=O)N2 [Example 22, 3-[2,4-Dimethyl-5-(5-methyl-2-oxo-1,2-dihydroindol-3-ylidenemethyl)-1H-pyrrol-3-yl]-propionic acid] | 15800 |
| 11000 | COC(=O)c1ccc2c(c1)/C(=C/c1[nH]cc(CCC(=O)O)c1C)C(=O)N2 [Example 12, 3-[4-(2-Carboxyethyl)-3-methyl-1H-pyrrol-2-ylmethylene]-2-oxo-2,3-dihydro-1H-indole-5-carboxylic acid methyl ester] | 24600 |
| 3000 | Cc1[nH]c(/C=C2\C(=O)Nc3cc(O)ccc32)c(C)c1CCC(=O)O [Example 23, 3-[5-(6-Hydroxy-2-oxo-1,2-dihydroindol-3-ylidenemethyl)-2,4-dimethyl-1H-pyrrol-3-yl]-propionic acid] | 1100 |
| 380 | Cc1c(CCC(=O)O)c[nH]c1/C=C1\C(=O)Nc2ccc(Cl)cc21 [Example 1, 3-[5-(5-Chloro-2-oxo-1,2-dihydroindol-3-ylidenemethyl)-4-methyl-1H-pyrrol-3-yl]-propionic acid] | 21400 |
| 1340 | Cc1c(CCC(=O)O)c[nH]c1/C=C1\C(=O)Nc2ccc(I)cc21 [Example 7, 3-[5-(5-Iodo-2-oxo-1,2-dihydroindol-3-ylidenemethyl)-4-methyl-1H-pyrrol-3-yl]-propionic acid] | 12300 |
| 2400 | COc1ccc2c(c1)/C(=C/c1[nH]cc(CCC(=O)O)c1C)C(=O)N2 [Example 18, 3-[5-(5-Methoxy-2-oxo-1,2-dihydroindol-3-ylidenemethyl)-4-methyl-1H-pyrrol-3-yl]-propionic acid] | 18400 |
| 810 | Cc1c(CCC(=O)O)c[nH]c1/C=C1\C(=O)Nc2cc(-c3ccccc3)ccc21 [Example 33, 3-[4-Methyl-5-(2-oxo-6-phenyl-1,2-dihydro-indol3-ylidenemethyl)-1H-pyrrol-3-yl]-propionic acid] | 1000 |
| 4000 | Cc1cccc2c1/C(=C/c1[nH]c(C)c(CCC(=O)O)c1C)C(=O)N2 [Example 21, 3-[2,4-Dimethyl-5-(4-methyl-2-oxo-1,2-dihydroindol-3-ylidene-methyl)-1H-pyrrol-3-yl]-propionic acid] | 5600 |
| 150 | Cc1c(CCC(=O)O)c[nH]c1/C=C1\C(=O)Nc2cc(Br)ccc21 [Example 28, 3-[5-(6-Bromo-2-oxo-1,2-dihydroindol-3-ylidenemethyl)-4-methyl-1H-pyrrol-3-yl]-propionic acid] | 1900 |

— patent US7119090B2, “Pyrrole substituted 2-indolinone protein kinase inhibitors” (Sugen, Inc., priority 1998, dated 2006)
